Consider 12 compounds from US10981926B2 (Janssen Pharmaceutica NV, priority 2016, dated 2021).

The target of experiment [1] is T1, wild-type Androgen Receptor (AR-wt) (Homo sapiens (Human), UniProt P10275). In words: LNCaP-AR-wt ANT reporter assay (antagonist mode). The conditions noted are these: for IC50 / LNCaP-AR-wt ANT pIC50: pIC50 = −Log10(IC50 in Molar); for IC50: read-out: LNCaP-AR-wt ANT pIC50 (converted); for Emax: read-out: LNCaP-AR-wt ANT MAX % Inh. Format: cell-based.
The subject of another experiment is rGABA-gated Cl− channel. Kind of experiment: GABA-Gated Cl Channel Antagonist Radioligand Binding Assay. Also noted: species or system rat. The conditions noted are these: 10 μM single point, [35S]-TBPS, cerebral cortex membrane homogenates. The essentials: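 Rat cerebral cortex membranes (120 μg protein) incubated 120 min at 22° C with 3 nM […] in 50 mM Na2HPO4/KH2PO4 pH 7.4, 500 mM NaCl; nonspecific binding defined with 20 μM picrotoxinin. Bound label counted after filtration; values are percent inhibition of specific binding at 10 μM compound.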

In experiment [2] the target is T1, wild-type Androgen Receptor (AR-wt). In words: LNCaP-AR-wt AG reporter assay (agonist mode). Format: cell-based. The conditions noted are these: for EC50 / LNCaP-AR-wt AG pEC50: pEC50 = −Log10(EC50 in Molar); for EC50: read-out: LNCaP-AR-wt AG pEC50 (converted); for Emax: read-out: LNCaP-AR-wt AG MAX % Stim.
Experiment [3] concerns the target T2, F876L mutant Androgen Receptor (AR-F876L) (Homo sapiens (Human), UniProt P10275, F877L). In words: LNCaP-AR-F876L AG reporter assay (agonist mode). Format: cell-based. The conditions noted are these: for EC50 / LNCaP-AR-F876L AG pEC50: pEC50 = −Log10(EC50 in Molar); for EC50: read-out: LNCaP-AR-F876L AG pEC50 (converted); for Emax: read-out: LNCaP-AR-F876L AG MAX % Stim.

Experiment [4] has as its target T2, F876L mutant Androgen Receptor (AR-F876L). Kind of experiment: LNCaP-AR-F876L ANT reporter assay (antagonist mode). Type of experiment: cell-based. The conditions noted are these: for IC50: read-out: LNCaP-AR-F876L ANT pIC50 (converted); for Emax: read-out: LNCaP-AR-F876L ANT MAX % Inh.
Setting [5] is: maximum % inhibition of R1881 control response over the tested concentration range.
Setting [6] is: maximum % stimulation (agonist response) over the tested concentration range.
Setting [7] is: antagonist mode, pIC50 = −Log10(IC50 in Molar).
The mark [8] stands for this setting: antagonist mode, maximum % inhibition of R1881 control response over tested concentration range.
Where [9] appears, read: agonist mode, maximum % stimulation over tested concentration range.

T2 sequence (P10275 whole entry F877L): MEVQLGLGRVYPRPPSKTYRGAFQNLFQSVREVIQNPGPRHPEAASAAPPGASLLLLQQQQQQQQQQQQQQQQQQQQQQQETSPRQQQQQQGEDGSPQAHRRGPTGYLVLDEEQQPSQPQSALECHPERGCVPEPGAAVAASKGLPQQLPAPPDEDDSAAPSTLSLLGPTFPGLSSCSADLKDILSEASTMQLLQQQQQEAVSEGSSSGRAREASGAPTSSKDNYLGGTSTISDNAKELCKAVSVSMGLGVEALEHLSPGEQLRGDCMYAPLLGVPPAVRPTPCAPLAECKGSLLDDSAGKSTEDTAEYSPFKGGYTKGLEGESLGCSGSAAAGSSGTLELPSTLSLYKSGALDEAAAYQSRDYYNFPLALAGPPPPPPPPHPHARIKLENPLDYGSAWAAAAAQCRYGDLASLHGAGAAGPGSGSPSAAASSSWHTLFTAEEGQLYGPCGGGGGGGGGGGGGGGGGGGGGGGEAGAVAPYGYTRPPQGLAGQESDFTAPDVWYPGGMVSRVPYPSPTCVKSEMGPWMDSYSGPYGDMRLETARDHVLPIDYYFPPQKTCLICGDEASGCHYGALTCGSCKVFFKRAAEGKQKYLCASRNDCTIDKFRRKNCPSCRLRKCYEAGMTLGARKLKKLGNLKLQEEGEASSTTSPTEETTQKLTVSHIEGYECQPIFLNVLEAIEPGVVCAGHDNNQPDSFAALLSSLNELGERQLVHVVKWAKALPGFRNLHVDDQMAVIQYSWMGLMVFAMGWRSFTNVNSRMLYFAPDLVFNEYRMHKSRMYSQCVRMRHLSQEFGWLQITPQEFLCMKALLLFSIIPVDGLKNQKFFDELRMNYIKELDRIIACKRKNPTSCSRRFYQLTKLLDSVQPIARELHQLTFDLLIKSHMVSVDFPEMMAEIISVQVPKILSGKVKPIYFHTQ
T1 sequence (P10275 whole entry): as the sequence (P10275 whole entry F877L) above, with L877F counted along it

Take `Cn1cc2cc(N3C(=S)N(c4cnc(C#N)c(C(F)(F)F)c4)C(=O)C34CCC4)ccc2n1` [Cpd 174, 5-[8-(2-methylindazol-5-yl)-5-oxo-7-thioxo-6,8-diazaspiro[3.4]octan-6-yl]-3-(trifluoromethyl)pyridine-2-carbonitrile]: the IC50 in experiment [1] (antagonist mode) is 407 nM; in experiment [4] (setting [7]), 219 nM. The Emax was 102% in experiment [1] (setting [5]), 0% in experiment [2] (setting [6]), 0.1% in experiment [3] (setting [6]) and 101% in experiment [4] (setting [5]). Moreover, the “rGABA-gated Cl− channel % inh @10 μM” value in the experiment on rGABA-gated Cl− channel is 94.9%. Moreover, the EC50 in experiment [2] (agonist mode) and in experiment [3] (agonist mode) was above 15100 nM each time.
On to `CCOC(=O)N1CCN(C(=O)c2ccc(N3C(=S)N(c4cnc(C#N)c(C(F)(F)F)c4)C(=O)C34CCC4)cc2)CC1` [Cpd 31, ethyl 4-[4-[6-[6-cyano-5-(trifluoromethyl)-3-pyridyl]-5-oxo-7-thioxo-6,8-diazaspiro[3.4]octan-8-yl]benzoyl]piperazine-1-carboxylate], for which the IC50 in experiment [1] (antagonist mode) is 1290 nM; in experiment [4] (setting [7]), 617 nM. For the same compound, the Emax in experiment [1] (setting [5]) was 80.3%; in experiment [2] (setting [6]), 0.3%; in experiment [3] (setting [6]), 0.1%; in experiment [4] (setting [5]), 87.1%. Besides, in the experiment with rGABA-gated Cl− channel, the “rGABA-gated Cl− channel % inh @10 μM” value came to 79.0%. The EC50 in experiment [2] (agonist mode) and in experiment [3] (agonist mode) was above 15100 nM in each case.
Turning to `N#Cc1ncc(N2C(=O)C3(CCC3)N(c3ccc(CC4CCNCC4)cc3)C2=S)cc1C(F)(F)F` [Cpd 234, 5-[5-oxo-8-[4-(4-piperidylmethyl)phenyl]-7-thioxo-6,8-diazaspiro[3.4]octan-6-yl]-3-(trifluoromethyl)pyridine-2-carbonitrile], the Emax in experiment [1] (setting [8]) is 100%; in experiment [2] (setting [9]) it was 0.1%; in experiment [3] (setting [9]), 0%; in experiment [4] (setting [8]) it was 102%. Further, the figures for the IC50 in experiment [1] (antagonist mode) and in experiment [4] (setting [7]) were 479 nM and 257 nM, respectively. Besides, the “rGABA-gated Cl− channel % inh @10 μM” value with rGABA-gated Cl− channel worked out at 57.4%. Besides, the EC50 in experiment [2] (agonist mode) and in experiment [3] (agonist mode) was above 15100 nM each time.
Take `CN1CCC(n2ncc3cc(N4C(=S)N(c5cnc(C#N)c(C(F)(F)F)c5)C(=O)C45CCC5)ccc32)CC1` [Cpd 109, 5-[8-[1-(1-methyl-4-piperidyl)indazol-5-yl]-5-oxo-7-thioxo-6,8-diazaspiro[3.4]octan-6-yl]-3-(trifluoromethyl)pyridine-2-carbonitrile]: the IC50 in experiment [1] (antagonist mode) is 2820 nM; in experiment [4] (setting [7]) it was 1350 nM. Also, the Emax in experiment [1] (setting [5]) was 96.1%; in experiment [2] (setting [6]) it was 0%; in experiment [3] (setting [6]) it was 0.2%; in experiment [4] (setting [5]), 98.8%. In the experiment with rGABA-gated Cl− channel, the “rGABA-gated Cl− channel % inh @10 μM” value came to 20.6%. Further, the EC50 in experiment [2] (agonist mode) and in experiment [3] (agonist mode) was above 15100 nM throughout.
With `CC(=O)N1CCC(n2ncc3cc(N4C(=S)N(c5cnc(C#N)c(C(F)(F)F)c5)C(=O)C45CCC5)ccc32)CC1` [Cpd 131, 5-[8-[1-(1-acetyl-4-piperidyl)indazol-5-yl]-5-oxo-7-thioxo-6,8-diazaspiro[3.4]octan-6-yl]-3-(trifluoromethyl)pyridine-2-carbonitrile], the IC50 in experiment [1] (antagonist mode) was 589 nM; in experiment [4] (setting [7]), 708 nM. Besides, the Emax is 101% in experiment [1] (setting [5]), -0.1% in experiment [2] (setting [6]), 0.3% in experiment [3] (setting [6]) and 97.9% in experiment [4] (setting [5]). Also, the “rGABA-gated Cl− channel % inh @10 μM” value with rGABA-gated Cl− channel worked out at 97.4%. Further, the EC50 in experiment [2] (agonist mode) and in experiment [3] (agonist mode) was above 15100 nM throughout.
`Cl.N#Cc1ncc(N2C(=O)C3(CCC3)N(c3cnc(OC4CCNCC4)nc3)C2=S)cc1C(F)(F)F` [Cpd 141, 5-{8-Oxo-5-[2-(piperidin-4-yloxy)-pyrimidin-5-yl]-6-thioxo-5,7-diaza-spiro[3.4]oct-7-yl}-3-trifluoromethyl-pyridine-2-carbonitrile]: the “LNCaP-AR-wt ANT pIC50” value in experiment [1] (antagonist mode) worked out at 6.30. Further, the Emax in experiment [1] (setting [5]) was 84.9%; in experiment [2] (setting [6]), -0.1%; in experiment [3] (setting [6]), 0%; in experiment [4] (setting [5]), 66.8%. The “rGABA-gated Cl− channel % inh @10 μM” value in the experiment with rGABA-gated Cl− channel was 56.1%. The EC50 in experiment [2] (agonist mode) and in experiment [3] (agonist mode) was above 15100 nM each time. Besides, the “LNCaP-AR-F876L ANT pIC50” value in experiment [4] (setting [7]) stood at 6.51.
For `CN1CC[C@H](Oc2ccc(N3C(=S)N(c4cnc(C#N)c(C(F)(F)F)c4)C(=O)C34CCC4)cc2)[C@H](F)C1` (racemic) [Cpd 102], the IC50 in experiment [1] (antagonist mode) is 79.4 nM; in experiment [4] (setting [7]), 49 nM. The Emax in experiment [1] (setting [5]) was found to be 99.7%; in experiment [2] (setting [6]), 0.4%; in experiment [3] (setting [6]), 0.3%; in experiment [4] (setting [5]), 99.6%. Further, the “rGABA-gated Cl− channel % inh @10 μM” value in the experiment on rGABA-gated Cl− channel was 52.1%. Besides, the EC50 in experiment [2] (agonist mode) and in experiment [3] (agonist mode) was above 15100 nM throughout.
For the compound `N#Cc1ncc(N2C(=O)C3(CCC3)N(c3ccc(C4=C[C@@H](O)[C@H](O)CO4)cc3)C2=S)cc1C(F)(F)F` [Cpd 112, 5-(5-(4-((3R,4R)-3,4-dihydroxy-3,4-dihydro-2H-pyran-6-yl)phenyl)-8-oxo-6-thioxo-5,7-diazaspiro[3.4]octan-7-yl)-3-(trifluoromethyl)picolinonitrile], the IC50 in experiment [1] (antagonist mode) was 269 nM; in experiment [4] (setting [7]), 282 nM. In addition, the Emax turned out to be 102% in experiment [1] (setting [5]), 0.3% in experiment [2] (setting [6]), 0.2% in experiment [3] (setting [6]) and 100% in experiment [4] (setting [5]). Besides, the “rGABA-gated Cl− channel % inh @10 μM” value in the experiment with rGABA-gated Cl− channel worked out at 99.1%. Also, the EC50 in experiment [2] (agonist mode) and in experiment [3] (agonist mode) was above 15100 nM throughout.
Consider `N#Cc1ncc(N2C(=O)C3(CCC3)N(c3ccc(OC4CCCNCC4)cc3)C2=S)cc1C(F)(F)F` (stereo not drawn) [Cpd 30, 5-[8-[4-(azepan-4-yloxy)phenyl]-5-oxo-7-thioxo-6,8-diazaspiro[3.4]octan-6-yl]-3-(trifluoromethyl)pyridine-2-carbonitrile], for which the IC50 was 708 nM in experiment [1] (antagonist mode) and 91.2 nM in experiment [4] (setting [7]). For the same compound, the “LNCaP-AR-wt ANT MAX % Inh” value in experiment [1] (setting [5]) was 99.7%. The “rGABA-gated Cl− channel % inh @10 μM” value with rGABA-gated Cl− channel was determined as 53.6%. The “LNCaP-AR-wt AG pEC50” value in experiment [2] (agonist mode) was below 4.82. For the same compound, in experiment [2] (setting [6]), the “LNCaP-AR-wt AG MAX % Stim” value is 0.3%. For the same compound, the “LNCaP-AR-F876L AG pEC50” value in experiment [3] (agonist mode) is below 4.82. Also, the “LNCaP-AR-F876L AG MAX % Stim” value in experiment [3] (setting [6]) came to 0.3%. The “LNCaP-AR-F876L ANT MAX % Inh” value in experiment [4] (setting [5]) was found to be 100.6%.
For `N#Cc1ncc(N2C(=O)C3(CCC3)N(c3ccc(OC4CCN(CCO)CC4)nc3)C2=S)cc1Cl` [Cpd 79, 3-chloro-5-[8-[6-[[1-(2-hydroxyethyl)-4-piperidyl]oxy]-3-pyridyl]-5-oxo-7-thioxo-6,8-diazaspiro[3.4]octan-6-yl]pyridine-2-carbonitrile], the IC50 was 6.76 nM in experiment [1] (antagonist mode) and 8.13 nM in experiment [4] (setting [7]). In addition, the Emax worked out at 101% in experiment [1] (setting [5]), 1.2% in experiment [2] (setting [6]), 1.3% in experiment [3] (setting [6]) and 98.5% in experiment [4] (setting [5]). The “rGABA-gated Cl− channel % inh @10 μM” value in the experiment with rGABA-gated Cl− channel is given as 11.5%. Moreover, the EC50 in experiment [2] (agonist mode) and in experiment [3] (agonist mode) was above 15100 nM throughout.
As to `N#Cc1ncc(N2C(=O)C3(CCC3)N(c3ccc(OC4CC5CCC(N5)C4F)cc3)C2=S)cc1C(F)(F)F` (stereo not drawn) [Cpd 93, 5-[8-[4-[(4-fluoro-8-azabicyclo[3.2.1]octan-3-yl)oxy]phenyl]-5-oxo-7-thioxo-6,8-diazaspiro[3.4]octan-6-yl]-3-(trifluoromethyl)pyridine-2-carbonitrile], in experiment [1] (antagonist mode), the “LNCaP-AR-wt ANT pIC50” value was 6.77. The Emax in experiment [1] (setting [5]) was 105%; in experiment [2] (setting [6]), 0.5%; in experiment [3] (setting [6]), 0.2%; in experiment [4] (setting [5]), 102%. For the same compound, the “rGABA-gated Cl− channel % inh @10 μM” value with rGABA-gated Cl− channel is listed as 74.4%. Besides, the “LNCaP-AR-wt AG pEC50” value in experiment [2] (agonist mode) is below 4.82. In addition, in experiment [3] (agonist mode), the “LNCaP-AR-F876L AG pEC50” value is below 4.82. For the same compound, the IC50 in experiment [4] (setting [7]) is 45.7 nM.
Regarding `CNC(=O)N1CCN(Cc2ccc(N3C(=S)N(c4cnc(C#N)c(C(F)(F)F)c4)C(=O)C34CCC4)cc2)CC1` [Cpd 53, 4-[[4-[6-[6-cyano-5-(trifluoromethyl)-3-pyridyl]-5-oxo-7-thioxo-6,8-diazaspiro[3.4]octan-8-yl]phenyl]methyl]-N-methyl-piperazine-1-carboxamide], the IC50 in experiment [1] (antagonist mode) is 123 nM; in experiment [4] (setting [7]), 45.7 nM. Besides, the Emax in experiment [1] (setting [5]) was 102%; in experiment [2] (setting [6]) it was 0.4%; in experiment [3] (setting [6]) it was 0.1%; in experiment [4] (setting [5]) it was 100%. The “rGABA-gated Cl− channel % inh @10 μM” value with rGABA-gated Cl− channel is 52.4%. The EC50 in experiment [2] (agonist mode) and in experiment [3] (agonist mode) was above 15100 nM throughout.
